Measurements from patent publication US20240327334A1, “Covalent Inhibitors As Antiviral Agents” (Enanta Pharmaceuticals, Inc., priority 2022, published 2024).

Tests used:
[1] = target: SARS-CoV-2 Papain-like (PLpro) protease (Severe acute respiratory syndrome coronavirus 2, UniProt P0DTD1); assay: SARS-CoV-2 Papain-like (PLpro) protease biochemical enzyme inhibition assay (ubiquitin-fluorophore substrate, Ub-R110); conditions: Ub-R110 substrate; run in duplicate; read-out: PLpro IC50
[2] = tested on: SARS-CoV-2 replicon; assay: microbe, parasite or virus in culture; type: cell-based; conditions: Severe acute respiratory syndrome coronavirus 2, Huh-7

SMILES	IC50 [1] [µM]	EC50 [2] [µM]
C[C@@H](NC(=O)c1ccccc1CNC(=O)C(=O)NCC#N)c1cc(-c2ccco2)cc(C(F)(F)F)c1 [Example 467]	< 0.1	< 1
C#CCNC(=O)C(=O)NCc1ccccc1C(=O)NC1(c2cc(-c3ccccc3)cc(C(F)(F)F)c2)CC1 [Example 469]	< 0.1	1 to 10
N#CCNC(=O)C(=O)NCc1ccccc1C(=O)NC1(c2cc(-c3cnn(C4CC4)c3)cc(C(F)(F)F)c2)CC1 [Example 470]	< 0.1	1 to 10
C#CCNC(=O)C(=O)NCc1ccccc1C(=O)NC1(c2cc(-c3cnn(C4CC4)c3)cc(C(F)(F)F)c2)CC1 [Example 471]	< 0.1	< 1
N#CCNC(=O)C(=O)NCc1ccccc1C(=O)NC1(c2cc(-c3cnn(C(F)F)c3)cc(C(F)(F)F)c2)CC1 [Example 472]	0.1 to 1	> 10
C#CCNC(=O)C(=O)NCc1ccccc1C(=O)NC1(c2cc(-c3cnn(C(F)F)c3)cc(C(F)(F)F)c2)CC1 [Example 473]	0.1 to 1	1 to 10
Cc1n[nH]c(C)c1-c1cc(C(F)(F)F)cc(C2(NC(=O)c3ccccc3CNC(=O)C(=O)NCC#N)CC2)c1 [Example 476]	0.1 to 1	1 to 10
C#CCNC(=O)C(=O)NCc1ccccc1C(=O)NC1(c2cc(-c3c(C)n[nH]c3C)cc(C(F)(F)F)c2)CC1 [Example 477]	< 0.1	< 1
N#CCNC(=O)C(=O)NCc1ccccc1C(=O)NC1(c2cc(Cl)cc(-n3cccn3)c2)CC1 [Example 480]	< 0.1	1 to 10
C#CCNC(=O)C(=O)NCc1ccccc1C(=O)NC1(c2cc(Cl)cc(-n3cccn3)c2)CC1 [Example 481]	0.1 to 1	1 to 10
C#CCNC(=O)C(=O)NCc1ccccc1C(=O)NC1(c2cc(Cl)cc(-c3nnc(C)o3)c2)CC1 [Example 484]	< 0.1	< 1
C#CCNC(=O)C(=O)NCc1ccccc1C(=O)NC1(c2cc(Cl)cc(-c3cn(C)nc3C)c2)CC1 [Example 485]	< 0.1	< 1
Cc1nn(C)cc1-c1cc(Cl)cc(C2(NC(=O)c3ccccc3CNC(=O)C(=O)NCC#Cc3nccs3)CC2)c1 [Example 486]	< 0.1	< 1
O=C(NCC#Cc1nccs1)C(=O)NCc1ccccc1C(=O)NC1(c2cc(Cl)cc(-c3ncco3)c2)CC1 [Example 487]	< 0.1	< 1
O=C(NCC#Cc1nccs1)C(=O)NCc1ccccc1C(=O)NC1(c2cc(F)cc(-n3cc(C4CC4)cn3)c2)CC1 [Example 489]	< 0.1	< 1
Cc1nn(C)c(C)c1-c1cc(F)cc(C2(NC(=O)c3ccccc3CNC(=O)C(=O)NCC#Cc3nccs3)CC2)c1 [Example 490]	< 0.1	< 1
C[C@@H](NC(=O)c1ccccc1CNC(=O)C(=O)NCC#Cc1nccs1)c1cc(F)cc(-c2cnn(C3CC3)c2)c1 [Example 491]	< 0.1	< 1
C[C@@H](NC(=O)c1ccccc1CNC(=O)C(=O)NCC#Cc1nccs1)c1cc(F)cc(-c2cnn(C(F)F)c2)c1 [Example 492]	< 0.1	< 1
C[C@@H](C#Cc1nccs1)NC(=O)C(=O)NCc1ccccc1C(=O)NC1(c2cc(Cl)cc(-c3ncco3)c2)CC1 [Example 493]	< 0.1	< 1

SMILES	IC50 [1] [µM]	EC50 [2] [µM]
C[C@@H](C#Cc1nccs1)NC(=O)C(=O)NCc1ccccc1C(=O)NC1(c2cc(Cl)cc(-c3nccs3)c2)CC1 [Example 494]	< 0.1	< 1
C[C@@H](C#Cc1nccs1)NC(=O)C(=O)NCc1ccccc1C(=O)N[C@H](C)c1cc(F)cc(-c2cnn(C3CC3)c2)c1 [Example 495]	< 0.1	< 1
C[C@@H](C#Cc1nccs1)NC(=O)C(=O)NCc1ccccc1C(=O)N[C@H](C)c1cc(F)cc(-c2cnn(C(F)F)c2)c1 [Example 496]	< 0.1	< 1
N#CN1CC[C@H]1CNC(=O)C(=O)NCc1ccccc1C(=O)NC1(c2cccc3ccccc23)CC1 [Example 500]	< 0.1	< 1
N#CN1CCC[C@H]1CNC(=O)C(=O)NCc1ccccc1C(=O)NC1(c2cccc3ccccc23)CC1 [Example 504]	< 0.1	< 1
N#CN1CC[C@@H](CNC(=O)C(=O)NCc2ccccc2C(=O)NC2(c3cccc4ccccc34)CC2)C1 [Example 509]	< 0.1	< 1
O=C(C#CCNC(=O)C(=O)NCc1ccccc1C(=O)NC1(c2cccc3ccccc23)CC1)NC1CC(F)(F)C1 [Example 519]	< 0.1	< 1
O=C(C#CCNC(=O)C(=O)NCc1ccccc1C(=O)NC1(c2cccc3ccccc23)CC1)N[C@H]1CC[C@H](C(F)(F)F)CC1 [Example 520]	< 0.1	< 1
CON(C)C(=O)C#CCNC(=O)C(=O)NCc1ccccc1C(=O)NC1(c2cccc3ccccc23)CC1 [Example 524]	< 0.1	< 1
O=C(NCC#CC(=O)N1CCCO1)C(=O)NCc1ccccc1C(=O)NC1(c2cccc3ccccc23)CC1 [Example 526]	< 0.1	< 1
COc1cc(C2(NC(=O)c3ccccc3CNC(=O)C(=O)N[C@@H](C)C#Cc3ncccn3)CC2)cc2cn(C3CC3)nc12 [Example 532]	< 0.1	< 1
CC(C)OC(=O)/C=C/CNC(=O)C(=O)NCc1ccccc1C(=O)NC1(c2cccc3ccccc23)CC1 [Example 538]	0.1 to 1	1 to 10
O=C(/C=C/CNC(=O)C(=O)NCc1ccccc1C(=O)NC1(c2cccc3ccccc23)CC1)NC1CC1 [Example 541]	0.1 to 1	> 10
N#CCNC(=O)C(=O)NCc1ccccc1C(=O)NC1(c2cccc(-c3ccc(F)cc3)c2)CC1 [Example 543]	0.1 to 1	> 10
N#CCNC(=O)C(=O)NCc1ccccc1C(=O)NC1(c2cccc(Br)c2)CC1 [Example 545]	0.1 to 1	> 10
O=C(NC/C=C/C(=O)N1CC(F)(F)C1)C(=O)NCc1ccccc1C(=O)NC1(c2cccc3ccccc23)CC1 [Example 554]	0.1 to 1	1 to 10
O=C(NC/C=C/C(=O)N1CC[C@H](O)C1)C(=O)NCc1ccccc1C(=O)NC1(c2cccc3ccccc23)CC1 [Example 555]	0.1 to 1	1 to 10
COCCN(C)C(=O)/C=C/CNC(=O)C(=O)NCc1ccccc1C(=O)NC1(c2cccc3ccccc23)CC1 [Example 556]	0.1 to 1	1 to 10
O=C(NC/C=C/C(=O)N1CCCC1)C(=O)NCc1ccccc1C(=O)NC1(c2cccc3ccccc23)CC1 [Example 557]	< 0.1	1 to 10

SMILES	IC50 [1] [µM]	EC50 [2] [µM]
CCN(OC)C(=O)/C=C/CNC(=O)C(=O)NCc1ccccc1C(=O)NC1(c2cccc3ccccc23)CC1 [Example 558]	0.1 to 1	1 to 10
CNN(C)C(=O)/C=C/CNC(=O)C(=O)NCc1ccccc1C(=O)NC1(c2cccc3ccccc23)CC1 [Example 559]	0.1 to 1	1 to 10
CONC(=O)/C=C/CNC(=O)C(=O)NCc1ccccc1C(=O)NC1(c2cccc3ccccc23)CC1 [Example 560]	0.1 to 1	1 to 10
O=C(/C=C/CNC(=O)C(=O)NCc1ccccc1C(=O)NC1(c2cccc3ccccc23)CC1)Nc1ccccc1 [Example 561]	0.1 to 1	1 to 10
O=C(NC/C=C/C(=O)N1CC[C@@H](O)C1)C(=O)NCc1ccccc1C(=O)NC1(c2cccc3ccccc23)CC1 [Example 563]	< 0.1	> 10
N#CC1(NC(=O)/C=C/CNC(=O)C(=O)NCc2ccccc2C(=O)NC2(c3cccc4ccccc34)CC2)CC1 [Example 564]	0.1 to 1	1 to 10
O=C(NC/C=C/C(=O)N1CCCCO1)C(=O)NCc1ccccc1C(=O)NC1(c2cccc3ccccc23)CC1 [Example 566]	0.1 to 1	1 to 10
O=C(NC/C=C/C(=O)n1cccn1)C(=O)NCc1ccccc1C(=O)NC1(c2cccc3ccccc23)CC1 [Example 567]	0.1 to 1	1 to 10
O=C(NC/C=C/C(=O)N1CCCO1)C(=O)NCc1ccccc1C(=O)NC1(c2cccc3ccccc23)CC1 [Example 568]	0.1 to 1	1 to 10
O=C(/C=C/CNC(=O)C(=O)NCc1ccccc1C(=O)NC1(c2cccc3ccccc23)CC1)Nc1ccccn1 [Example 569]	0.1 to 1	< 1
CC(C)(C)OC(=O)/C=C/CNC(=O)C(=O)NCc1ccccc1C(=O)NC1(c2cccc3ccccc23)CC1 [Example 571]	0.1 to 1	1 to 10
O=C(/C=C/CNC(=O)C(=O)NCc1ccccc1C(=O)NC1(c2cccc3ccccc23)CC1)NCC(F)(F)F [Example 572]	0.1 to 1	> 10
CON(C)C(=O)/C=C/CNC(=O)C(=O)NCc1ccccc1C(=O)NC1(c2cccc3ccccc23)CC1 [Example 573]	0.1 to 1	1 to 10
N#Cc1cccc(NC(=O)/C=C/CNC(=O)C(=O)NCc2ccccc2C(=O)NC2(c3cccc4ccccc34)CC2)c1 [Example 574]	0.1 to 1	1 to 10
O=C(/C=C/CNC(=O)C(=O)NCc1ccccc1C(=O)NC1(c2cccc3ccccc23)CC1)NC1(C(F)(F)F)CC1 [Example 575]	0.1 to 1	> 10
COC(=O)/C=C/CNC(=O)C(=O)NNc1ccccc1C(=O)NC1(c2cccc3ccccc23)CC1 [Example 576]	< 0.1	< 1
COc1cc(C2(NC(=O)c3ccccc3CNC(=O)C(=O)NC/C=C/c3ncccn3)CC2)cc2cn(C3CC3)nc12 [Example 577]	< 0.1	< 1
O=C(NC/C=C/c1ncccn1)C(=O)NCc1ccccc1C(=O)NC1(c2ccc3ccccc3c2)CC1 [Example 582]	< 0.1	< 1
